# Source: patent publication US20100292185A1, “BETA-LACTAMASE INHIBITORS” (priority 2009, published 2010)
# pIC50: −log10 of the molar value. Counter-ions that a name gives are not always drawn.
# What was measured:
# [1] = system: E. coli expressing the Class A ESBL SHV-5; test: In vitro antibacterial assay of β-lactamase inhibition (broth microdilution MIC), E. coli SHV-5; type: cell-based; settings: for MIC: Escherichia coli, read-out: MIC alone, E. coli SHV-5
# From the text: (§1) To determine the ability of test compounds to potentiate the inhibition of the growth of bacterial strains producing beta-lactamase enzymes, classic cell based screening assays were employed. Five bacteria strains producing beta-lactamase enzymes were used: K. pneumoniae expressing the Class A Extended Spectrum Beta-Lactamase (ESBL) CTX-M-15, E. coli expressing the Class A ESBL SHV-5, E. cloacae expressing the Class C P99+, K. pneumoniae expressing the Class A carbapenemase KPC-2, and P. aeruginosa expressing the Class B metallo β-lactamase VIM-2. In order to evaluate the ability of test compounds to inhibit beta-lactamase activity, Applicants used a modification of the broth microdilution assay. The assay was conducted in Cation Adjusted Mueller Hinton Broth (CAMHB, BD # 212322, BD Diagnostic Systems, Sparks, Md.). Bacteria strains were grown for 3-5 hours in CAMBH broth. All five strains were grown in presence of 50 μg/mL ampicillin to ensure resistance is maintained. In the meantime, test compounds were diluted in DMSO to a 0.1 mg/mL stock. The compounds were added to a microtiter plate and were diluted in 2-fold serial dilutions in CAMHB in a final concentration range of 8 μg/mL to 0.015 μg/ml. […] Each of these compound plates are made in quadruplicate, one for each bacteria strain. In addition to the titration of test compounds the MICs of a panel of cephalosporins is also tested to ensure the strains are behaving consistently from test to test. Once the test compound and cephalosporin are added the plates can be inoculated. Inocula are conducted according to CLSI broth microdilution method. After inoculation the plates are incubated for 16-20 hours at 37° C. then the Minimal Inhibitory Concentration (MIC) of the test compound is determined visually.
# (§2) Using the methodology described above, examples of the current invention were evaluated for their ability to inhibit the growth of β-lactamase producing bacteria in the presence of a β-lactam antibiotic.
# [2] = system: P. aeruginosa expressing the Class B metallo β-lactamase VIM-2; test: In vitro antibacterial assay of β-lactamase inhibition (broth microdilution MIC), P. aeruginosa VIM-2; type: cell-based; settings: for MIC: Pseudomonas aeruginosa, read-out: MIC alone, P. aeruginosa VIM-2; for MIC of example compound, P. aeruginosa VIM-2: in presence of Ceftazidime 16 μg/mL (Examples 1-56)
# From the text: as §1, §2
# [3] = system: E. cloacae expressing the Class C P99+; test: In vitro antibacterial assay of β-lactamase inhibition (broth microdilution MIC), E. cloacae P99+; type: cell-based; settings: for MIC: Enterobacter cloacae, read-out: MIC alone, E. cloacae P99+ AmpC
# From the text: as §1, §2
# [4] = system: K. pneumoniae expressing the Class A Extended Spectrum Beta-Lactamase (ESBL) CTX-M-15; test: In vitro antibacterial assay of β-lactamase inhibition (broth microdilution MIC), K. pneumoniae CTX-M-15; type: cell-based; settings: for MIC: Klebsiella pneumoniae, read-out: MIC alone, K. pneumoniae CTX-M-15
# From the text: as §1, §2
# [5] = system: K. pneumoniae expressing the Class A carbapenemase KPC-2; test: microbe, parasite or virus in culture; type: cell-based; settings: for MIC: Klebsiella pneumoniae, read-out: MIC alone, K. pneumoniae KPC-2
# From the text: as §1, §2
# CTX-M15 β-lactamase = molecular target: T1, CTX-M15 β-lactamase (Escherichia coli, UniProt Q9EXV5); test: β-lactamase enzyme inhibition assay (nitrocefin substrate), CTXM-15; type: biochemical
# T1 construct: expressed as native untagged proteins; made in house; host or cells: E. coli BL21(DE3)
# Protocol: (§3) Isolation of β-lactamases. For SHV-5, p99 AmpC, KPC-2 and CTX-M15 β-lactamases, E. coli BL21(DE3) bacterial cells carrying expression plasmids (expressed as native untagged proteins) for the individual β-lactamases were grown in 1 L of Superbroth (Teknova Inc. Hollister, Calif.) supplemented with 100 μg/ml kanamycin and 1×5052 (0.5% glycerol, 0.05% glucose and 0.2% α-lactose) at 35° C. for 18-20 hours. Cells were harvested by centrifugation (4,000×g, 4° C., 20 min), and resuspended in 50 ml of 10 mM HEPES pH 7.5 (1/20 of the initial volume). The cells were lysed by sonication (5 pulses of 45 seconds) at 45 W on ice. The lysates were clarified by centrifugation at 10,000×g for 40 minutes at 4° C. Samples were diluted 5-fold in 50 mM sodium acetate pH 5.0, stored overnight at 4° C., after which they were centrifuged at 10,000×g for 30 minutes to clarify, and filtered through 0.45 μm filters. The samples were loaded onto a 5 ml Capto S sepharose cation exchange column (GE Healthcare) pre-equilibrated with 50 mM sodium acetate pH 5.0. The column was washed with 5 column volumes of 50 mM sodium acetate pH 5.0 to wash out unbound protein and a linear gradient of NaCl (0 to 500 mM) was used to elute the protein (over 16 CV) from the column. Fractions were assayed for β-lactamase activity using Centa (Calbiochem, Gibbstown, N.J.) as a reporter β-lactamase substrate for activity in the isolated fractions. Active fractions were pooled, concentrated and further purified by gel filtration chromatography on a Superdex 75 prep grade gel filtration column (GE Healthcare, Piscataway, N.J.) pre-equilibrated in 50 mM Hepes pH 7.5, 150 mM NaCl. Active fractions were pooled concentrated, quantitated by BCA protein determination (Thermo Scientific, Rockford, Ill.), and frozen at −80° C. in 20% glycerol until use.
# (§4) β-lactamase Inhibition. To determine the level of inhibition of β-lactamase enzymes, compounds were diluted in PBS at pH 7.0 to yield concentrations between 100 and 0.005 μM in microtiter plates. An equal volume of diluted enzyme stock was added, and the plates were incubated at 37° C. for 10 min. Nitrocefin solution was then dispensed as substrate into each well at a final concentration of 100 μM, and the plates were immediately read with the kinetic program at 486 nm for 10 min on the SPECTRAMAX® Plus^384 (high-throughput microplate spectrophotometer; Molecular Devices Corp., Sunnyvale, Calif.). Maximum rates of metabolism were then compared to those in control wells (without inhibitors), and percentages of enzyme inhibition were calculated for each concentration of inhibitor. The concentration of inhibitor needed to reduce the initial rate of hydrolysis of substrate by 50% (IC50) was calculated as the residual activity of β-lactamase at 486 nm using the SoftMax Pro 5.0 software (Molecular Devices Corp.).
# (§5) Using the methodology described above, examples of the current invention were evaluated for their ability to inhibit β-lactamase enzymes. The results of these assays are summarized in Table 2 for representative enzymes across different subtypes (note SHV-5 and CTXM-15 exemplify different subclasses of Ambler Class A Extended Spectrum Beta Lactamases, KPC-2 exemplifies Class A carbapenemases, P99 represents chromosomal Class C AmpC, VIM-2 exemplifies subclass B1 of metallo-β-lactamases, and OXA-23 represents chromosome-encoded Class D oxacillin-hydrolyzing β-lactamases), NT=not tested.
# p99 AmpC β-lactamase = molecular target: T2, p99 AmpC β-lactamase (Enterobacter cloacae, UniProt P05364); test: β-lactamase enzyme inhibition assay (nitrocefin substrate), P99 AmpC; type: biochemical; settings: nitrocefin 100 μM, 37° C., PBS pH 7.0; read-out: P99 AmpC IC50
# T2 construct: expressed as native untagged proteins; made in house; host or cells: E. coli BL21(DE3)
# Protocol: as §3, §4, §5
# SHV-5 β-lactamase = molecular target: T3, SHV-5 β-lactamase (Klebsiella pneumoniae, UniProt P0A3M1); test: β-lactamase enzyme inhibition assay (nitrocefin substrate), SHV-5; type: biochemical
# T3 construct: expressed as native untagged proteins; made in house; host or cells: E. coli BL21(DE3)
# Protocol: as §3, §4, §5
# KPC-2 β-lactamase = molecular target: T4, KPC-2 β-lactamase (Klebsiella pneumoniae, UniProt Q9F663); test: β-lactamase enzyme inhibition assay (nitrocefin substrate), KPC-2; type: biochemical
# T4 construct: expressed as native untagged proteins; made in house; host or cells: E. coli BL21(DE3)
# Protocol: as §3, §4, §5
# [6] = in presence of Ceftazidime 8 μg/ml (Examples 1-56)
# [7] = in presence of Piperacillin 16 μg/ml (Examples 57-65)
# T3 sequence (P0A3M1 22-286): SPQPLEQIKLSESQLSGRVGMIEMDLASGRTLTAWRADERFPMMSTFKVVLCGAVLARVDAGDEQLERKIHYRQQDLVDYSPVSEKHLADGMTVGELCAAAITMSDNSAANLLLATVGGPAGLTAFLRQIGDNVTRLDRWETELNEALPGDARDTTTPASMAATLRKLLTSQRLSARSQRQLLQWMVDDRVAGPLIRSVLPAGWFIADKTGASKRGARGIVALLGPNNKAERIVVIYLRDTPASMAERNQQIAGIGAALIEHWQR
# T1 sequence (Q9EXV5 entry or part of it): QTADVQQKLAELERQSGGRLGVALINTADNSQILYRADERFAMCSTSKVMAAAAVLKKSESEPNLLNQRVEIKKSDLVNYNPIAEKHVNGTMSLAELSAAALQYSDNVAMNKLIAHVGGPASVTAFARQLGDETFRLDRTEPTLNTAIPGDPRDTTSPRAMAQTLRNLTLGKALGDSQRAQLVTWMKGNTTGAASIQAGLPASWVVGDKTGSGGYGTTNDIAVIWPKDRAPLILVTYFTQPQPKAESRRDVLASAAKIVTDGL
# T2 sequence (P05364 21-381): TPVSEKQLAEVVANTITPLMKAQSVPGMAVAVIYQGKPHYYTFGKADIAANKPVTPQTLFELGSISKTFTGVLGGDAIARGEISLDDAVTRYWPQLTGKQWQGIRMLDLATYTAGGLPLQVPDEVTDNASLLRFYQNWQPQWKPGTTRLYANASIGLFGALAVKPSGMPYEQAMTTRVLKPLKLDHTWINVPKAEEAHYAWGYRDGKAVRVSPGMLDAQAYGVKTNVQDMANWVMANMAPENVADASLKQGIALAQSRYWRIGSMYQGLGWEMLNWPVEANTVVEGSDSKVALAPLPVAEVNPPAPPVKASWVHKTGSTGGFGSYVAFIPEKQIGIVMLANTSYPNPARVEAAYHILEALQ
# T4 sequence (Q9F663 25-293 limits assumed): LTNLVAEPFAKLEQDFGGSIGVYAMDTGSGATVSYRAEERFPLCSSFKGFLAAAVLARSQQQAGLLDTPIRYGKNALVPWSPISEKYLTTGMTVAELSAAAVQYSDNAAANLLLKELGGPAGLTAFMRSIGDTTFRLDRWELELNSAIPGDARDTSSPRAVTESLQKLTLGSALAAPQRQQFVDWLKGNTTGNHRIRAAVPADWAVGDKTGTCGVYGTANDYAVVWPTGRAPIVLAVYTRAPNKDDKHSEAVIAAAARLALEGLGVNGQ
SMILES,MIC [1],MIC [2],MIC [3],MIC [4],MIC [5],pIC50 (CTX-M15 β-lactamase),pIC50 (p99 AmpC β-lactamase),"MIC of example compound, E. coli SHV-5 [1, 6]",pIC50 (SHV-5 β-lactamase),"MIC of example compound, P. aeruginosa VIM-2 [2]",pIC50 (KPC-2 β-lactamase),"MIC of example compound, E. cloacae P99+ [3, 6]","MIC of example compound, K. pneumoniae CTX-M-15 [4, 6]","MIC of example compound, K. pneumoniae KPC-2 [5, 6]","MIC of example compound, E. coli SHV-5 [1, 7]","MIC of example compound, E. cloacae P99+ [3, 7]","MIC of example compound, K. pneumoniae CTX-M-15 [4, 7]","MIC of example compound, K. pneumoniae KPC-2 [5, 7]"
"CC(C)(O/N=C(\C(=O)N[C@@H]1C(=O)N2C(C(=O)[O-])=C(C[n+]3ccccc3)CS[C@H]12)c1csc(N)n1)C(=O)O [Ceftazidime, reference compound]",> 1020 µg/mL,128 µg/mL,128 µg/mL,128 µg/mL,32 µg/mL,,,,,,,,,,,,,
"Cl.O=C(N[C@@H](Cc1cccc(C(=O)O)c1O)B(O)O)c1ccc(CNCCO)cc1 [Example 16, (1R)-[4-(2-hydroxy-ethylamino)-methyl]-benzoylamino-(3-carboxy-2-hydroxy)benzyl-methyl boronic acid hydrochloride]",,,,,,8.30,8.22,8 µg/mL,< 6.00,4 µg/mL,8.30,0.25 µg/mL,1 µg/mL,0.03 µg/mL,,,,
"Cl.O=C(N[C@@H](Cc1cccc(C(=O)O)c1O)B(O)O)c1ccc(CNCc2cccnc2)cc1 [Example 17, (1R)-[4-(pyridin-3-ylmethylaminomethyl]-benzoylamino-(3-carboxy-2-hydroxy)benzyl-methylboronic acid hydrochloride]",,,,,,8.30,8.10,,< 6.00,,7.82,,,,,,,
Cl.O=C(N[C@@H](Cc1cccc(C(=O)O)c1O)B(O)O)c1ccc(CNCc2cccnc2)cc1 [Example 17],,,,,,,,>8 µg/mL,,>8 µg/mL,,1 µg/mL,2 µg/mL,0.12 µg/mL,,,,
"O=C(N[C@@H](Cc1cccc(C(=O)O)c1O)B(O)O)c1cccc(CN(CCO)CCO)c1 [Example 23, (1R)-(3-{[bis-(2-hydroxy-ethyl)-amino]-methyl}-benzoylamino)-(3-carboxy-2-hydroxy)benzyl-methylboronic acid formate]",,,,,,8.70,9.05,8 µg/mL,7.77,>8 µg/mL,8.09,2 µg/mL,1 µg/mL,0.12 µg/mL,,,,
"N=C(N)NCCC[C@H](NCc1ccc(CC(=O)N[C@@H](Cc2cccc(C(=O)O)c2O)B(O)O)cc1)C(=O)O [Example 59, (1R)-1-(2-{4-[(1-Carboxy-4-guanidino-butylamino)-methyl]-phenyl}-acetylamino)-1-[(3-carboxy-2-hydroxy)benzyl]-methylboronic acid formate]",,,,,,,8.22,,8.70,,7.82,,,,0.5 µg/mL,2 µg/mL,>16 µg/mL,1 µg/mL
"O=C(Cc1ccc(CNC(CO)C(=O)O)cc1)N[C@@H](Cc1cccc(C(=O)O)c1O)B(O)O (stereo partly drawn) [Example 60, (1R)-1-(2-{4-[(1-Carboxy-2-hydroxy-ethylamino)-methyl]-phenyl}-acetylamino)-1-[(3-carboxy-2-hydroxy)benzyl]-methylboronic acid formate]",,,,,,,8.05,,8.70,,7.96,,,,1 µg/mL,2 µg/mL,>16 µg/mL,0.5 µg/mL
"N=C(N)NCc1ccc(CC(=O)N[C@@H](Cc2cccc(C(=O)O)c2O)B(O)O)cc1 [Example 61, (1R)-1-{2-[4-(1-guanidinomethyl)-phenyl]-acetylamino}-1-[(3-carboxy-2-hydroxy)benzyl]-methylboronic acid formate salt]",,,,,,8.40,7.96,,8.70,,7.85,,,,0.25 µg/mL,0.25 µg/mL,16 µg/mL,0.25 µg/mL
"N=C(N)c1ccc(CC(=O)N[C@@H](Cc2cccc(C(=O)O)c2O)B(O)O)cc1 [Example 62, (1R)-1-{2-[4-(Carbamimidoyl)-phenyl]-acetylamino}-1-[(3-carboxy-2-hydroxy)benzyl]-methylboronic acid formate salt]",,,,,,,8.52,,8.70,,8.05,,,,0.125 µg/mL,0.125 µg/mL,>128 µg/mL,0.125 µg/mL
"N=C(N)NCc1cccc(CC(=O)N[C@@H](Cc2cccc(C(=O)O)c2O)B(O)O)c1 [Example 65, (1R)-1-{2-[3-(1-guanidinomethyl)-phenyl]-acetylamino}-1-[(3-carboxy-2-hydroxy)benzyl]-methylboronic acid formate salt]",,,,,,,,,,,,,,,0.25 µg/mL,0.25 µg/mL,>16 µg/mL,0.5 µg/mL
"CCN1CCN(C(=O)N[C@@H](C(=O)N[C@@H]2C(=O)N3[C@@H]2SC(C)(C)[C@@H]3C(=O)O)c2ccccc2)C(=O)C1=O [Pip, Piperacillin, reference compound]",> 128 µg/mL,> 128 µg/mL,> 128 µg/mL,> 128 µg/mL,> 128 µg/mL,,,,,,,,,,,,,
